Consider 1 compound from paper PMC11672637, “7-O-Carboxylic Acid-Substituted 3-O-Alkyl Difluoroquercetin; An Aztreonam-Potentiating Agent Against Carbapenemase-Producing Pseudomonas aeruginosa Through Simultaneous Inhibition of Metallo-β-Lactamase and Efflux Pump” (Antibiotics, 2024).

Molecules are shown by their SMILES.

Data set [1] has as its target T1, KPC-2 (Klebsiella pneumoniae, UniProt Q9F663).
T1 construct: purchased LifeSpan Biosciences, Inc. LS-G26598
The data set can be described thus: β-lactamase inhibition assay (nitrocefin). Format: biochemical. The conditions noted are these: nitrocefin substrate; read-out: BLi, IC50 KPC-2. The procedure:
(§1) Recombinant AmpC, OXA-48 (residues 23–265) and VIM-2 (residues 27–266) were prepared from Escherichia coli based on previously established protocols. KPC-2 and NDM-1 are commercially available from LifeSpan Biosciences, Inc., Seattle, WA, USA (LS-G26598) and RayBiotech, Inc., Peachtree Corners, GA, USA (230-00554), respectively. For β-lactamase inhibition assay, in a 96-well plate, 70–0.1 μM (in PBS) of the synthesized compounds (1~14) (100 μL) were mixed with diluted β-lactamase stock (2% DMSO in 200 μL). In a separate 96-well plate, a substrate of AmpC, KPC-2, OXA-48, and VIM-2 (nitrocefin) and NDM-1 (imipenem) were added into each well (final concentrations of 70 μM for nitrocefin and 100 μM for imipenem). After incubation at 37 °C for 20 min, the mixture of the synthesized compounds (1~14) and β-lactamase in one plate was added to the substrate in the other plate. Enzymatic hydrolysis of the substrate was then monitored by a Cytation 5 imaging multimode reader (BioTek Instruments Inc., Winooski, VT, USA) at 486 nm and 300 nm for nitrocefin and imipenem, respectively, for 15 min. The rates of hydrolysis in the presence of the inhibitors were determined when the reaction rate plateaued. Comparison of the enzymatic hydrolysis rates in the presence and the absence of inhibitors (100%) provided the percentage of enzyme inhibition at each concentration of the synthesized compounds. The IC50 values were obtained after non-linear regression (sigmoidal dose-responses) by GraphPad Prism 5 (GraphPad Software, Boston, MA, USA).

The target in data set [2] is AmpC. Put plainly: β-lactamase inhibition assay (nitrocefin). Format: biochemical. The conditions noted are these: nitrocefin substrate; read-out: BLi, IC50 AmpC. The procedure:
as §1

Data set [3] deals with T2, VIM-2 (Escherichia coli, UniProt Q5U7L7).
T2 construct: VIM-2 (residues 27–266); made in house; host or cells: Escherichia coli
The data set can be described thus: β-lactamase inhibition assay (nitrocefin). It is filed as biochemical. Particulars: nitrocefin substrate; read-out: BLi, IC50 VIM-2. As to the method:
as §1

For data set [4], the target named is T3, OXA-48 (Klebsiella pneumoniae, UniProt Q6XEC0).
T3 construct: OXA-48 (residues 23–265); made in house; host or cells: Escherichia coli
The data set can be described thus: β-lactamase inhibition assay (nitrocefin). Format: biochemical. Particulars: nitrocefin substrate; read-out: BLi, IC50 OXA-48. The procedure: as §1

The subject of data set [5] is HEK293 cells. The data set can be described thus: Cytotoxicity assay (WST-1). Format: cell-based, human. Particulars: 24 h, 0.5–128 mg/L tested. The procedure:
The HEK293 cells were cultured in Dulbecco’s modified Eagle medium (DMEM) supplemented with 10% fetal bovine serum (FBS) and 1% penicillin-streptomycin solution at 37 °C with 5% CO2. The cells seeded into 96-well plates at 1.5 × 10^4 cells/well were incubated for 24 h. The compound 5 was added to the wells at concentrations ranging from 0.5 to 128 mg/L and incubated for 24 h. Then, for WST-1 assay, EZ-cytox solution (10 μL, DoGenBio, Seoul, Republic of Korea) was added to the wells and incubated for 1 h, and the absorbance was measured at 450 nm (Cytation 5 imaging multimode reader, BioTek Instruments, Inc., Winooski, VT, USA).
(Formazan colour is commonly taken as a measure of viable cells.)

Data set [6] deals with efflux pump activity in P. aeruginosa (PA-017, blaNDM). The data set can be described thus: EtBr accumulation, inhibition of efflux pump activity. It is filed as cell-based. The conditions noted are these: EtBr fluorescence compared with positive control CCCP. As to the method: The NDM-producing P. aeruginosa clinical isolate (PA-017, blaNDM) (5 mL, LB medium) was grown to reach the mid-log phase. After centrifugation at 3500 rpm for 15 min, the bacterial pellet was washed twice with PBS and resuspended to OD600 = 0.3 in PBS. To each well of a flat-bottomed black 96-well plate, 182 µL of the bacterial suspension, 4 µL of glucose [final concentration = 0.4% (w/v)], 4 µL of the synthesized compounds or positive control CCCP, and 10 µL of EtBr (final concentration = 1 µg/mL) were added. The plate was incubated at 37 °C, and fluorescence emission from EtBr (λex 480 nm/λem 630 nm) was recorded every 2 min (for 60 min) using a Cytation 5 imaging multi-mode reader (BioTek Instruments, Inc., Winooski, VT, USA).

Data set [7] has as its system human red blood cells. Put plainly: Hemolytic activity assay. It is filed as cell-based. Particulars: human RBCs; 4–128 mg/L tested. The procedure: Washed human red blood cells (hRBCs, Innovative Research, Novi, MI, USA) were diluted 1:100 in HEPES-NaOH buffered saline (HBS) [150 mM NaCl/5 mM HEPES-NaOH (pH 7.4)]. Samples (100 μL) were taken from the serially diluted (4 to 128 mg/L) compound 5 and mixed with 250 μL of hRBCs in 1.5 mL microcentrifuge tube. After incubation at 37 °C for 30 min, the tubes were centrifuged at 3000 rpm for 5 min. The supernatant (50 μL), thus obtained, was transferred to transparent, flat-bottom 96-well plates and absorption was measured at 405 nm (Cytation 5 imaging multimode reader, BioTek Instruments, Inc., Winooski, VT, USA). In some cases, 1% TritonX-100 or HBS buffer was used instead of the compound 5 as positive and negative controls, respectively. The percentage of hemolysis was calculated as follows: % Hemolysis = (ODtest − ODHBS)/[…] × 100%.

Data set [8] deals with T4, NDM-1 (Klebsiella pneumoniae, UniProt C7C422).
T4 construct: purchased RayBiotech, Inc. 230-00554
The data set can be described thus: β-lactamase inhibition assay (imipenem). The conditions noted are these: imipenem substrate; read-out: BLi, IC50 NDM-1. It is filed as biochemical. The procedure:
as §1

T3 sequence (Q6XEC0 23-265 limits assumed): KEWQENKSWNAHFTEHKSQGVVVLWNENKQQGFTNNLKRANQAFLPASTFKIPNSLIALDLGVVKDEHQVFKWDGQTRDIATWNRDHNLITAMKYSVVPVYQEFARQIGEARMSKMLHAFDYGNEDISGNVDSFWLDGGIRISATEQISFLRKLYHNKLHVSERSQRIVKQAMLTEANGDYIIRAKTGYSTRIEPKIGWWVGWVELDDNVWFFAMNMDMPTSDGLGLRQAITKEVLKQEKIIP
T1 sequence (Q9F663 25-293, looked up, species assumed): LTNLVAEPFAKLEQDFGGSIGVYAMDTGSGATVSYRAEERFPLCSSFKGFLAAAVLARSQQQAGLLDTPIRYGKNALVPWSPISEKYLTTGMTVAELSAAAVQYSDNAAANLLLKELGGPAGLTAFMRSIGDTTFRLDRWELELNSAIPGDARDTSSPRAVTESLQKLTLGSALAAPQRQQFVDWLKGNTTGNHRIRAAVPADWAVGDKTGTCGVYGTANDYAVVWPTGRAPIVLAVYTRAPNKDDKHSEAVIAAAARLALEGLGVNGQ
T4 sequence (C7C422 29-270, looked up, species assumed): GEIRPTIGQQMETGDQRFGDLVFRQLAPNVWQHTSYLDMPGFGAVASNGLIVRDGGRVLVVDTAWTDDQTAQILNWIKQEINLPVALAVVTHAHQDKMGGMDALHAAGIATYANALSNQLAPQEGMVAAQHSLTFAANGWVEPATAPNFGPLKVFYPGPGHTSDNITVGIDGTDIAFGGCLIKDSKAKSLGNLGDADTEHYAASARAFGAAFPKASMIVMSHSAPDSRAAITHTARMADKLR

As for `CC(C)(C)CCOc1c(-c2ccc(F)c(F)c2)oc2cc(OCC(=O)O)cc(O)c2c1=O` [Compound 5, 2-((2-(3,4-Difluorophenyl)-3-(3,3-dimethylbutoxy)-5-hydroxy-4-oxo-4H-chromen-7-yl)oxy)acetic Acid], the IC50 – broadly, the concentration at which inhibition is half-maximal – in data set [1] is more than 50 µM; in data set [2], more than 50 µM; in data set [3] it was more than 100 µM; in data set [4], more than 100 µM; in data set [8], 6.1 ± 0.4 µM. In data set [5], the “Concentration at which cell viability was affected” value is “greater than 64 mg/L”. For the same compound, the “EPi (inhibition of efflux pump activity)” value in data set [6] is listed as “↑ ^g”. Also, the “Concentration up to which no noticeable toxic effect (hemolysis)” value in data set [7] was not below 128 µg/mL.
